From US11078185B2, “Mycobacterium tuberculosis—thioredoxin reductase inhibitor as an antitubercular agent” (Technische Universität Dortmund, priority 2017, dated 2021)
Values after ≈ are worked out from the molar mass of the structure shown. Values joined by “and” are separate entries in the source; they are usually repeats but may differ in a detail not shown here. Equal entries are not always repeated.

Key:
[1] = molecular target: MtTrxR (Mycobacterium tuberculosis thioredoxin reductase) (Mycobacterium tuberculosis, UniProt P9WHH1); assay: MtTrxR activity assay according to Lu et al. (DTNB assay); format: biochemical; conditions: error range = standard deviation
Chain of MtTrxR (Mycobacterium tuberculosis thioredoxin reductase) (P9WHH1 whole entry): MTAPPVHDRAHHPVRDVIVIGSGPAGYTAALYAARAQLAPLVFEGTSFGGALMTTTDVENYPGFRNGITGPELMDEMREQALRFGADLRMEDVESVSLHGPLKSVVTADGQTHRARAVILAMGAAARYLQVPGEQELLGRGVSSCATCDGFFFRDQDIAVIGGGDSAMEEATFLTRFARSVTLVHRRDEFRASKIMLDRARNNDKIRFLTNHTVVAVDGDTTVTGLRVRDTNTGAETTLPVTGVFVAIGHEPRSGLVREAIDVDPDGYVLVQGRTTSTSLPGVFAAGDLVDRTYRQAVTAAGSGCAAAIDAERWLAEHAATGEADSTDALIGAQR
Experimental: The compounds according to the invention show good inhibitory activity towards MtTrxR. In a preferred embodiment, the compounds according to the invention have an IC50 value according to Lu et al. from 0.10 to 10.00 μM. Methods for determining the IC50 value according to Lu et al. are known to those skilled in the art. Reference is made in this respect to J. Lu, A. Vlamis-Gardikas, K. Kandasamy, R. Zhao, T. N. Gustafsson, L. Engstrand, S. Hoffner, L. Engman, A. Holmgren, FASEB J. 2013, 27, 1394-1403.
(§1) A biochemical evaluation of the inhibitory activity (i.e. the IC50 value) of the compounds obtained towards MtTrxR by means of an activity assay according to Lu et al. (error range indicated by the standard deviation) was conducted. The testing of the potential inhibitors against MtTrxR was performed according to the description of Lu et al. Furthermore, MIC50 values (generic minimum inhibitory concentration) of certain compounds were measured with the BD BACTEC™ MGIT™ system: […]

[2] = format: in vitro ADME
Experimental: Selected compounds were investigated in terms of their permeability with the aid of the PAMPA assay (Parallel Artificial Membrane Permeation Assay). The permeability of the compounds across an artificial membrane of phospholipids was tested in a filter plate. Since a significant difference existed between the artificial membrane and the mycobacterial cell wall, the values should only be used as a measure to be able to evaluate the permeability of the compounds with respect to each other. For this purpose, the distribution between a donor and acceptor chamber without membrane was determined as the reference value (100% flux), in which the concentration of the compounds in the chambers was determined spectrophotometrically. Subsequently, the permeability of compounds 1, 8, 63 and 68 across the membrane used was determined. The PAMPA flux [%] value was 12.60 for compound 1, 29.70 for compound 8, 53.60 for compound 63, and 41.00 for compound 68.

[3] = test system: Mycobacterium tuberculosis; assay: Antimycobacterial activity (FIG. 1); format: cell-based
Description: FIG. 1 is directed to the antimycobacterial activity of compounds 2, 8 and 68 according to the invention.

[4] = test system: Mycobacterium tuberculosis; assay: MIC50 measured with the BD BACTEC MGIT system; format: cell-based; conditions: read-out: MIC50 [μM] (μG/mL)
Experimental: as §1

human macrophages = format: cell-based
Description: FIG. 3 is directed to the cytotoxic activity of compound 68 according to the invention against human macrophages.

[5] = test system: Mycobacterium tuberculosis strain H37Rv in infected human macrophages; assay: Antimycobacterial activity in infected human macrophages (FIG. 2); format: cell-based
Description: FIG. 2 is directed to the antimycobacterial activity of compound 68 according to the invention against Mycobacterium tuberculosis strain H37Rv in infected human macrophages.

| SMILES | IC50 [1] | PAMPA flux [%] [2] | antimycobacterial activity [3] | MIC50 [4] | cytotoxicity towards macrophages (human macrophages) | antimycobacterial activity in infected human macrophages [5] |
| --- | --- | --- | --- | --- | --- | --- |
| COc1ccc2nc(C)cc(Nc3ccc(O)cc3)c2c1 [Compound 1, 4-((6-Methoxy-2-methylquinolin-4-yl)amino)phenol, reference compound] | 11.5 ± 1.52 µM | 12.60% | – | – | – | – |
| COc1ccc2nc(C)cc(Nc3ccc(S(=O)(=O)c4ccc(Nc5ccncc5)cc4)cc3)c2c1 [Compound 2, 6-methoxy-2-methyl-N-(4-((4-(pyridin-4-ylamino)phenyl)sulfonyl)phenyl)quinolin-4-amine] | 0.25 ± 0.04 µM | – | concentration-dependent antimycobacterial activity | 8 to 32 µM (≈ 3.97 to 15.9 µg/mL) | – | – |
| COc1ccc2nc(C)cc(Nc3ccc(Cc4ccc(N)cc4)cc3)c2c1 [Compound 8, N-(4-(4-aminobenzyl)phenyl)-6-methoxy-2-methylquinolin-4-amine] | 1.8 µM | 29.70% | concentration-dependent antimycobacterial activity | 4 to 8 µM (≈ 1.48 to 2.96 µg/mL) | – | – |
| COc1ccc2nc(C)cc(Nc3ccc(S(=O)(=O)c4ccc(N)cc4)cc3)c2c1 [Compound 9, N-(4-((4-aminophenyl)sulfonyl)phenyl)-6-methoxy-2-methylquinolin-4-amine] | 5.21 ± 0.24 µM | – | – | – | – | – |
| COc1ccc2nc(C)cc(Nc3ccc(S(=O)(=O)c4ccc(NC(C)=O)cc4)cc3)c2c1 [Compound 10, N-(4-((4-((6-methoxy-2-methylquinolin-4-yl)amino)phenyl)sulfonyl)phenyl)acetamide] | 3.59 ± 1.95 µM | – | – | – | – | – |
| COc1ccc2nc(C)cc(Nc3ccc(S(=O)(=O)c4ccc(Nc5ccncn5)cc4)cc3)c2c1 [Compound 24, 6-methoxy-2-methyl-N-(4-((4-(pyrimidin-4-yl-amino)phenyl)sulfonyl)phenyl)quinolin-4-amine] | 0.51 ± 0.04 µM | – | – | 8 to 32 µM (≈ 3.98 to 15.9 µg/mL) | – | – |
| COc1ccc2nc(C)cc(Nc3ccc(S(=O)(=O)c4ccc(Nc5cc(C(C)(C)C)n[nH]5)cc4)cc3)c2c1 [Compound 25, N-(4-((4-((3-(tert-butyl)-1H-pyrazol-5-yl)amino)phenyl)sulfonyl)phenyl)-6methoxy-2-methylquinolin-4-amine] | 9.1 ± 0.3 µM | – | – | – | – | – |
| COc1ccc(Nc2ccc(S(=O)(=O)c3ccc(Nc4cc(C)nc5ccc(OC)cc45)cc3)cc2)cc1 [Compound 26, 6-methoxy-N-(4-((4-((4-methoxyphenyl)amino)phenyl)sulfonyl)phenyl)-2-methylquinolin-4-amine] | 1.9 ± 0.8 µM | – | – | 8 to 32 µM (≈ 4.21 to 16.8 µg/mL) | – | – |
| COC(=O)c1ccc(Nc2ccc(S(=O)(=O)c3ccc(Nc4cc(C)nc5ccc(OC)cc45)cc3)cc2)cc1 [Compound 27, methyl-4-((4-((4-((6-methoxy-2-methylquinolin-4-yl)amino)phenyl)sulfonyl)phenyl)amino) benzoate] | 4.8 ± 1.6 µM | – | – | – | – | – |
| COc1ccc2nc(C)cc(Nc3ccc(C(=O)c4ccc(Nc5ccncc5)cc4)cc3)c2c1 [Compound 45, (4-((6-methoxy-2-methylquinolin-4-yl)amino)phenyl)(4-(pyridin-4-yl-amino)phenyl)methanone] | 1.04 ± 0.2 µM | – | – | > 32 µM | – | – |
| COc1ccc2nc(C)cc(Nc3ccc(Cc4ccc(Nc5ccncc5)cc4)cc3)c2c1 [Compound 63, 6-methoxy-2-methyl-N-(4-(4-(pyridin-4-ylamino)benzyl)phenyl)quinolin-4-amine] | 5.64 µM and 4.7 µM | 53.60% | – | 8 to 32 µM (≈ 3.57 to 14.3 µg/mL) | – | – |
| COc1ccc2nc(C)cc(Nc3ccc(Cc4ccc(Nc5ccncn5)cc4)cc3)c2c1 [Compound 68, 6-methoxy-2-methyl-N-(4-(4-(pyrimidin-4-ylamino)benzyl)phenyl)quinolin-4-amine] | 2.03 µM and 1.7 µM | 41.00% | concentration-dependent antimycobacterial activity | 2 to 8 µM (≈ 0.895 to 3.58 µg/mL) | without being toxic | concentration-dependent antimycobacterial activity |
